Experimental data taken from patent publication US8232269B2, “Amide compounds useful in therapy” (Pfizer Inc., priority 2008, dated 2012).

Each molecule was assayed against T1, Progesterone Receptor (PR) (Homo sapiens, UniProt P06401) (assay: In vitro functional assay for progesterone receptor (PR) antagonists: inhibition of progesterone-induced alkaline phosphatase expression in T47D cells). Details: antagonist format, 5 nM progesterone, Ki calculated from IC50 with the Cheng-Prusoff equation.
T1 construct: endogenous in cells; host or cells: T47D human breast mammary carcinoma cells
T1 sequence (P06401 1-933): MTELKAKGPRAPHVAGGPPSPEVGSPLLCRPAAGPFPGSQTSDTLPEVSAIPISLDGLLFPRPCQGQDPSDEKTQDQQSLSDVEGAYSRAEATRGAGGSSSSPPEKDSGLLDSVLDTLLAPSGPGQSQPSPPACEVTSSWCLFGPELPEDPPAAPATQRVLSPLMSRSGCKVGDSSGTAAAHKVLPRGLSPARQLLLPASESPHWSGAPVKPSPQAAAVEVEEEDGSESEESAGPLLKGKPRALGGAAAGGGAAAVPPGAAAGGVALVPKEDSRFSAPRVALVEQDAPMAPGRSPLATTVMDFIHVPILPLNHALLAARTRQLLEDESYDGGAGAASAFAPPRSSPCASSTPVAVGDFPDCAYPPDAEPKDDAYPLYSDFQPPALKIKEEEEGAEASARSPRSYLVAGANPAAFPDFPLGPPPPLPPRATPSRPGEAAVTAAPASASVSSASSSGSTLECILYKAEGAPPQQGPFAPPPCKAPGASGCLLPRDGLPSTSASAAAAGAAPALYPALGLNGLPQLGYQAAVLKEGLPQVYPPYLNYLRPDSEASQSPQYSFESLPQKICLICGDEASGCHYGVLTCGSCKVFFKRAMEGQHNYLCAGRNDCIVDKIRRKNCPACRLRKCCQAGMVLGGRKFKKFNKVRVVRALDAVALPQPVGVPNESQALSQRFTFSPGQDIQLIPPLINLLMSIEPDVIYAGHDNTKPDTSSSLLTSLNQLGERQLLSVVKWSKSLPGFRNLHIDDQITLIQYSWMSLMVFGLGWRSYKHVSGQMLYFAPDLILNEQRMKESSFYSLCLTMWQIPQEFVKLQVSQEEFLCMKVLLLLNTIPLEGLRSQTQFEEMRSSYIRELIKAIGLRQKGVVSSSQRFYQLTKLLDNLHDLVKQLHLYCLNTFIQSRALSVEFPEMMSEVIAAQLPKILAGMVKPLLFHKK
Type: cell-based
Description: 1.0 In vitro Functional Assay for Progesterone Receptor (PR) Antagonists, Agonists and Modulators
The assay for PR antagonism takes advantage of the extensively reported modulation of alkaline phosphatase (AP) expression in human breast T47D mammary carcinoma cells {Beck et al., D. P. (1993). The progesterone antagonist RU486 acquires agonist activity upon stimulation of cAMP signalling pathways. Proc Natl Acad Sci USA 90, 4441-4445; Fensome et al. (2002). New progesterone receptor antagonists: 3,3-disubstituted-5-aryloxindoles. Bioorg Med Chem Lett 12, 3487-3490; Zhang et al., (2002a). 6-Aryl-1,4-dihydro-benzo d1,3oxazin-2-ones: a novel class of potent, selective, and orally active nonsteroidal progesterone receptor antagonists. Journal of Medicinal Chemistry 45, 4379-4382; Zhang et al., (2003). Novel 6-aryl-1,4-dihydrobenzo d oxazine-2-thiones as potent, selective, and orally active nonsteroidal progesterone receptor agonists. Bioorganic & Medicinal Chemistry Letters 13, 1313-1316; Zhang et al., (2002b). Potent nonsteroidal progesterone receptor agonists: synthesis and SAR study of 6-aryl benzoxazines. Bioorganic & Medicinal Chemistry Letters 12, 787-790; Zhang, Z. et al., (2000). In vitro characterization of trimegestone: a new potent and selective progestin. Steroids 65, 637-643}. […] In the absence of progesterone any agonist activity is also observed as an induction of AP activity. By running the assay in two formats (+/−progesterone (P4)), compounds behaving as PR antagonists, agonists, partial agonists or modulators with mixed agonist/antagonist activity can be identified.
Briefly, T47D cells are grown by propagating in DMEM with phenol red+10% FCS+2 mM Glutamine at 37° C./5% CO2. At 70-80% confluence, the media is exchanged for phenol red free DMEM+5% CS-FCS (Assay media). Cells are incubated overnight in assay media then harvested and frozen in assay media containing 10% DMSO at 1.5e7 cells/mL in 2 mL aliquots using a Planer and immediately stored in liquid nitrogen. Vials are removed from liquid nitrogen storage and immediately thawed in a water bath at 37° C. The cell suspension is added dropwise to 20 mL of assay media, then the tube centrifuged at 1000 rpm for 4 minutes, the supernatant is discarded and the pellet re-suspended in 20 mL assay media. T47D cells are then plated at 8750 cells/well in 35 μL assay media in sufficient white solid 384 well TC plates for the assay. For the agonist format assay a further 10 μL of assay media is added to each well. These plates are then cultured for 3-6 hours at 37° C./5% CO2 before compound addition.
Test substances are prepared by in 100% DMSO, half log concentrations from 4 mM in 384 well plates 5 μL/well (referred to here as ‘grandmother plates’). Progesterone is 100 μM made up in ethanol and PBS (i.e. add 1 mL ethanol to progesterone initially to help dissolving) and stored in 0.5-1 mL aliquots at −20° C.
Using a multidrop (Thermolabsystems), 60 μL/well of buffer is added to a 384 well plate—this will be the ‘mother plate’. _Add 45 μL well buffer to grandmother plate using the multidrop (=400 μM 10% DMSO dilution). Mixed and spun to remove air bubbles. • 20 μL is taken from the grandmother plate (400 μM 10% DMSO) and added to the mother plate (=100 μM 2.5% DMSO). Mixed and spun to remove air bubbles Preparation of Max/Min:
Antagonist Min: (Checker Pattern on Plate Map) 1 μM RU-486 (FAC 0.1 μM) • 50 μL of 0.2 mM RU-486 • 10 mL Diluent Addition of Test Substance to Cell Plates • The PlateMate Plus was used to add 5 μL MAX/MIN to cell plates • Then 5 μL test substances are added from the mother plate (after removing max/min PlateMate tips: columns 1 and 24)
Addition of Agonist (5 nM Progesterone FAC) for Antagonist Format Only
25 nM progesterone in assay media is prepared from 100 μM stock (12.5 μL progesterone/50 mL media), from which 10 μL per well is transferred to the assay plate using the PlateMate Plus (already containing cells & compound). […]

| Ki | SMILES |
| --- | --- |
| 13.9 nM | CC(C)n1nc(-c2ccc(C#N)cc2)c(C2CC2)c1C(=O)NC[C@@H](C)O [Example 3, 3-(4-Cyano-phenyl)-4-cyclopropyl-N-[(2R)-2-hydroxypropyl]-1-isopropyl-1H-pyrazole-5-carboxamide] |
| 8.29 nM | CC(=O)CNC(=O)c1c(C2CC2)c(-c2ccc(C#N)cc2)nn1C(C)C [Example 61, 3-(4-Cyanophenyl)-4-cyclopropyl-1-isopropyl-N-(2-oxopropyl)-1H-pyrazole-5-carboxamide] |
| 42.2 nM | CCC(=O)N1CC(NC(=O)c2c(C3CC3)c(-c3ccc(C#N)cc3)nn2C(C)C)C1 [Example 17, 3-(4-Cyanophenyl)-4-cyclopropyl-1-isopropyl-N-(1-propionylazetidin-3-yl)-1H-pyrazole-5-carboxamide] |
| 19.8 nM | CC(C)n1nc(-c2ccc(C#N)cc2)c(C2CC2)c1C(=O)NCC(C)(C)O [Example 1, 3-(4-Cyano-phenyl)-4-cyclopropyl-N-(2-hydroxy-2-methylpropyl)-1-isopropyl-1H-pyrazole-5-carboxamide] |
| 51.4 nM | CC(=O)N1CC(NC(=O)c2c(C3CC3)c(-c3ccc(C#N)cc3)nn2C(C)C)C1 [Example 19, N-(1-Acetylazetidin-3-yl)-3-(4-cyanophenyl)-4-cyclopropyl-1-isopropyl-1H-pyrazole-5-carboxamide] |
| 82.6 nM | CC(C)n1nc(-c2ccc(C#N)cc2)c(C2CC2)c1C(=O)NC(C)(C)CO [Example 56, 3-(4-Cyanophenyl)-4-cyclopropyl-N-(2-hydroxy-1,1-dimethylethyl)-1-isopropyl-1H-pyrazole-5-carboxamide] |
| 38.2 nM | CCc1c(-c2ccc(C#N)cc2)nn(C(C)CC)c1C(=O)NCC(C)(C)O (single isomer, unassigned) [Example 106 Ent 2, 1-sec-Butyl-3-(4-cyanophenyl)-4-ethyl-N-(2-hydroxy-2-methylpropyl)-1H-pyrazole-5-carboxamide] |
| 285 nM | CC(C)n1nc(-c2ccc(C#N)cc2)c(C2CC2)c1C(=O)NC1CNC1 [Example 10, N-Azetidin-3-yl-3-(4-cyanophenyl)-4-cyclopropyl-1-isopropyl-1H-pyrazole-5-carboxamide] |

Further lines, the molecule ahead of its results:

| SMILES | Ki |
| --- | --- |
| Cc1c(-c2ccc(C#N)cc2)nn(C2CCOC2)c1C(=O)NC(C)C (single isomer, unassigned) [Example 77 Ent 1, 3-(4-Cyanophenyl)-N-isopropyl-4-methyl-1-(tetrahydrofuran-3-yl)-1H-pyrazole-5-carboxamide] | 69.5 nM |
| Cc1c(-c2ccc(C#N)cc2)nn(C2CCC2)c1C(=O)NC1CC1 [Example 71, 3-(4-Cyanophenyl)-1-cyclobutyl-N-cyclopropyl-4-methyl-1H-pyrazole-5-carboxamide] | 8.25 nM |
| Cc1c(-c2ccc(C#N)cc2)nn(C2CCC2)c1C(=O)NC[C@H](C)O [Example 72, 3-(4-Cyanophenyl)-1-cyclobutyl-N-[(2S)-2-hydroxypropyl]-4-methyl-1H-pyrazole-5-carboxamide] | 13.3 nM |
| CNC(=O)CNC(=O)c1c(C)c(-c2ccc(C#N)c(C)c2)nn1C(C)C [Example 113, 3-(4-Cyano-3-methylphenyl)-1-isopropyl-4-methyl-N-[2-(methylamino)-2-oxoethyl]-1H-pyrazole-5-carboxamide] | 27.1 nM |
| CCNC(=O)c1c(Cc2ccccc2)c(-c2ccc(C#N)cc2)nn1C(C)C [Example 97, 4-Benzyl-3-(4-cyanophenyl)-N-ethyl-1-isopropyl-1H-pyrazole-5-carboxamide] | 399 nM |
| Cc1c(-c2ccc(C#N)cc2)nn(C2CC2)c1C(=O)NC[C@@H](C)O [Example 87, 3-(4-Cyanophenyl)-1-cyclopropyl-N-[(2R)-2-hydroxypropyl]-4-methyl-1H-pyrazole-5-carboxamide] | > 191 nM |
| Cc1c(-c2ccc(C#N)cc2)nn(C2CCC2)c1C(=O)NC[C@@H](C)O [Example 73, 3-(4-Cyanophenyl)-1-cyclobutyl-N-[(2R)-2-hydroxypropyl]-4-methyl-1H-pyrazole-5-carboxamide] | 29.1 nM |
| CC(C)NC(=O)c1c(Cc2ccccc2)c(-c2ccc(C#N)cc2)nn1C(C)C [Example 95, 4-Benzyl-3-(4-cyanophenyl)-N,1-diisopropyl-1H-pyrazole-5-carboxamide] | 315 nM |
| Cc1c(-c2ccc(C#N)cc2)nn(C2CC2)c1C(=O)NC1CC1 [Example 84, 3-(4-Cyanophenyl)-N,1-dicyclopropyl-4-methyl-1H-pyrazole-5-carboxamide] | 125 nM |
| Cc1cc(-c2nn(C(C)C)c(C(=O)NC[C@H](C)O)c2C#N)ccc1C#N [Example 124] | 5.93 nM |
| CCNC(=O)c1c(C)c(-c2ccc(C#N)cc2)nn1C1CCOC1 (racemic) [Example 76, 3-(4-Cyanophenyl)-N-ethyl-4-methyl-1-(tetrahydrofuran-3-yl)-1H-pyrazole-5-carboxamide] | 26.9 nM |
| Cc1c(-c2ccc(C#N)cc2)nn(C2CCOC2)c1C(=O)NC(C)C (racemic) [Example 77, 3-(4-Cyanophenyl)-N-isopropyl-4-methyl-1-(tetrahydrofuran-3-yl)-1H-pyrazole-5-carboxamide] | 28.2 nM |
| Cc1cc(-c2nn(C(C)C)c(C(=O)NC[C@@H](C)O)c2C)ccc1C#N [Example 64, 3-(4-Cyano-3-methylphenyl)-N-[(2R)-2-hydroxypropyl]-1-isopropyl-4-methyl-1H-pyrazole-5-carboxamide] | 10.9 nM |
| CCc1c(-c2ccc(C#N)cc2)nn(C(C)CC)c1C(=O)NCC1CC1 (racemic) [Example 101, (+/−)-1-sec-Butyl-3-(4-cyanophenyl)-N-(cyclopropylmethyl)-4-ethyl-1H-pyrazole-5-carboxamide] | 7.67 nM |
| Cc1c(-c2ccc(C#N)cc2)nn(C2CCOC2)c1C(=O)NC[C@H](C)O (single isomer, unassigned) [Example 78 Diast 2] | 49.4 nM |
